# Measured values: patent publication US8304557B2, “Fused heterocycle derivatives and use thereof” (Takeda Pharmaceutical Company Limited, priority 2007, dated 2012)
# What was measured:
# [1] = system: phosphorylated MEK1/2 in human colon cancer cell HT-29; assay: Colon cancer cell HT-29 intracellular MEK phosphorylation inhibitory action in vitro (Western blot); format: cell-based; settings: HT-29 cells, 2 hr treatment, anti-phosphorylated MEK1/2 (Ser217/221), read-out: IC50 (nM), MEK phosphorylation inhibition
# Procedure: A cell suspension (500 μL) of human colon cancer cell HT-29 was plated in a 48-well plate (100,000 cells/well), and the cells were cultured overnight at 37° C. in the presence of 5% CO2, treated with a test compound (250 μL/well) diluted in 3-fold dilution series and cultured for two more hours. After 2 hr, the culture medium containing the test compound was removed, and the cells were lysed with SDS sample buffer (100 μL/well) and heated at 95° C. for 5 min. Thereafter, the cells were applied to SDS-PAGE, and the protein was transferred onto Sequi-Blot™ PVDF Membrane (Bio-Rad, Richmond, Calif.) by the Western blot method. The cells were blocked with a block-Ace solution (Snow Brand Milk Products Co., Ltd) dissolved in phosphate buffer to 5% W/V, and reacted overnight with anti-phosphorylated MEK1/2 (Ser217/221) (Cell signaling #9121) diluted 1000-fold with phosphate buffer containing 0.4% block-Ace. […] The membrane was washed in the same manner as above, chemical luminescence of a phosphorylated MEK1/2 protein labeled with the antibody, which was caused by ECL-plus Detection Reagent (Amersham bioscience), was detected by Luminescent Image Analyzer LAS-1000 (FUJIFILM Corporation).
# [2] = system: human colon cancer cell HT-29; assay: Colon cancer cell HT-29 growth suppressive action in vitro (SRB); format: cell-based; settings: 72 h, HT-29 cells, cultured for 3 days with compound, SRB staining, read-out: IC50 (nM), HT-29 growth suppression
# Procedure: A cell suspension (100 μL, 3,000 cells/well) of human colon cancer cell HT-29 (purchased from ATCC) was plated in a 96-well plate, and the cells were cultured at 37° C. in a 5% carbon dioxide gas incubator. The next day, 2-fold serial dilution of each test compound solution (diluted from maximum concentration 20 μM) (100 μL) was added, and the cells were cultured for 3 days. The culture medium containing the test compound was removed, and the cells were washed with phosphate buffer (PBS). A 50% trichloroacetic acid solution was added to the final concentration of 10% (v/v), and the mixture was stood overnight at 4° C., whereby the cells were fixed to the plate. Then, a dye SRB 0.4% (W/V) solution (dissolved in 1% acetic acid) was added at 50 μl/well, whereby the cell protein was fixed and stained (Skehan et al., Journal Of National Cancer Institute, vol. 82, pp. 1107-1112, 1990). The cells were washed 3 times with 1% acetic acid solution (200 μL/well), and 100 μL of an extract (10 mM Tris buffer) was added to extract the dye. The absorbance at an absorption wavelength […] was measured, and cell amount was measured as a protein amount.
Structure (SMILES),IC50 [1] [nM],IC50 [2] [nM]
"CC(C)(C#N)c1cccc(C(=O)Nc2cccc(Oc3ccc4nc(NC(=O)C5CC5)cn4c3)c2)c1 [Example 228, 3-(1-cyano-1-methylethyl)-N-[3-({2-[(cyclopropylcarbonyl)amino]imidazo[1,2-a]pyridin-6-yl}oxy)phenyl]benzamide]",< 500,< 500
"N#CC1(c2cccc(C(=O)Nc3cccc(Oc4ccc5nc(NC(=O)C6CC6)nn5c4)c3)c2)CC1 [Example 232, 3-(1-cyanocyclopropyl)-N-[3-({2-[(cyclopropylcarbonyl)amino][1,2,4]triazolo[1,5-a]pyridin-6-yl}oxy)phenyl]benzamide]",< 500,–
"Cc1ccc(NC(=O)c2cccc(C(C)(C)C#N)c2)cc1Oc1ccc2nc(NC(=O)C3CC3)nn2c1 [Example 233, 3-(1-cyano-1-methylethyl)-N-[3-({2-[(cyclopropylcarbonyl)amino][1,2,4]triazolo[1,5-a]pyridin-6-yl}oxy)-4-methylphenyl]benzamide]",–,< 500
